Drawing on patent US12187758B2 (ROME Therapeutics, Inc., priority 2022, dated 2025), this text covers IC50 for 22 compounds.

Structures are written as SMILES.

Common to all, as to format: cell-based
Assay [1] relates to THP1-Dual KO-TREX1 cells. Nature of the assay: THP1 TREX1 KO inhibition assay (type 1 interferon response). The note with it: Homo sapiens, 144 h, type 1 interferon (QUANTI-LUC), 1 μM 5-aza-2′-deoxycytidine, six days. Put shortly: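 THP1-Dual KO-TREX1 cells were treated with a dose titration of compound, alone or with 1 μM 5-aza-2′-deoxycytidine, for six days at 37 °C. Type 1 interferon was read as secreted luciferase (QUANTI-LUC) in the supernatant, and viability by CellTiter-Glo luminescence.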

For assay [2], the system named is PC3 cells. As to the kind of experiment: Mitochondria toxicity assay with PC3 cells, cytotoxicity (Cell Titer Glo). The note with it: Homo sapiens, PC-3, 120 h, 5 days treatment. In outline: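 PC3 cells in F-12K with 10% FBS exposed to a compound dose titration for 5 days at 37° C, 5% CO2. Viability by Cell Titer Glo luminescence after 30 min at room temperature; values binned A (<1.0 μM) to E (>100.0 μM).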
Background: In ATP-based viability assays light output follows the ATP content of the culture.

Assay [3] concerns SDH-A (succinate dehydrogenase-A). Nature of the assay: Mitochondria toxicity assay with PC3 cells, in-cell ELISA SDH-A. The note with it: 5 days treatment. In outline:
(§1)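 This in-cell ELISA was run on fixed, permeabilized PC3 cells after 5-day exposure to titrated compound, with cytotoxicity measured on a duplicate plate. Results are reported as categories A (<1.0 μM) to E (>100.0 μM).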
For orientation: An ELISA detects its analyte on a solid surface through an enzyme-linked reagent.

A short description of assay [4]: Mitochondria toxicity assay with PC3 cells, in-cell ELISA COX-1. The note with it: 5 days treatment. In outline: as §1

The term IC50 denotes the concentration that gives 50% inhibition. A lower IC50 goes with higher potency. In the case of `Cc1cn([C@@H]2O[C@@](CO)(CCl)[C@@H](O)[C@H]2F)c(=O)[nH]c1=O` [Compound 9, 1-((2R,3R,4R,5R)-5-(chloromethyl)-3-fluoro-4-hydroxy-5-(hydroxymethyl)tetrahydrofuran-2-yl)-5-methylpyrimidine-2,4(1H,3H)-dione], the IC50 is more than 1 µM in assay [1], more than 100 µM in assay [2], more than 100 µM in assay [3] and more than 100 µM in assay [4].
As for `CC(C)[C@]1(CO)O[C@@H](n2ccc(N)nc2=O)C[C@@H]1O` [Compound 55, 4-amino-1-[(2R,4S,5R)-4-hydroxy-5-(hydroxymethyl)-5-isopropyloxolan-2-yl] pyrimidin-2-one], the IC50 in assay [1] was more than 1 µM; in assay [2], more than 100 µM; in assay [3], more than 100 µM; in assay [4], more than 100 µM.
On to `Nc1nc(=O)n([C@H]2C[C@H](O)[C@](CO)(CF)O2)cc1F` [Compound 22, 4-amino-5-fluoro-1-((2R,4S,5R)-5-(fluoromethyl)-4-hydroxy-5-(hydroxymethyl)tetrahydrofuran-2-yl)pyrimidin-2(1H)-one], for which the IC50 was 0.05 to 0.1 µM in assay [1], more than 100 µM in assay [2], more than 100 µM in assay [3] and more than 100 µM in assay [4].
As to `O=c1[nH]c(=O)n([C@@H]2O[C@@](CO)(CCO)[C@@H](O)[C@@H]2F)cc1F` [Compound 179, 5-fluoro-1-((2R,3S,4R,5R)-3-fluoro-4-hydroxy-5-(2-hydroxyethyl)-5-(hydroxymethyl)tetrahydrofuran-2-yl) pyrimidine-2,4(1H,3H)-dione], the IC50 in assay [1] was more than 1 µM; in assay [2], more than 100 µM; in assay [3] it was more than 100 µM; in assay [4], more than 100 µM.
Consider `N#C[C@]1(CO)O[C@@H](n2cnc3c(N)nc(F)nc32)C[C@@H]1O` [Compound 26, (2R,3S,5R)-5-(6-amino-2-fluoro-9H-purin-9-yl)-3-hydroxy-2-(hydroxymethyl) tetrahydrofuran-2-carbonitrile], for which the IC50 in assay [1] is more than 1 µM; in assay [2], more than 100 µM; in assay [3] it was more than 100 µM; in assay [4], 50 to 100 µM.
Turning to `Cc1cn([C@H]2C[C@H](F)[C@](CO)(CCl)O2)c(=O)[nH]c1=O` [Compound 7, 1-((2R,4S,5R)-5-(chloromethyl)-4-fluoro-5-(hydroxymethyl)tetrahydrofuran-2-yl)-5-methylpyrimidine-2,4(1H,3H)-dione], the IC50 in assay [1] is more than 1 µM; in assay [2], more than 100 µM; in assay [3], more than 100 µM; in assay [4], more than 100 µM.
As to `[N-]=[N+]=N[C@]1(CO)O[C@@H](c2ccc3c(N)ncnn23)C[C@@H]1O` [Compound 92, (2R,3S,5R)-5-(4-aminopyrrolo[2,1-f][1,2,4]triazin-7-yl)-2-azido-2-(hydroxymethyl) tetrahydrofuran-3-ol], the IC50 in assay [1] was more than 1 µM; in assay [2], 1 to 10 µM; in assay [3], 1 to 10 µM; in assay [4], less than 1 µM.
`Nc1nc(=O)n([C@H]2C[C@H](O)[C@](CO)(C(F)(F)F)O2)cc1F` [Compound 66, 4-amino-5-fluoro-1-((2R,4S,5R)-4-hydroxy-5-(hydroxymethyl)-5-(trifluoromethyl)tetrahydrofuran-2-yl)pyrimidin-2(1H)-one]: the IC50 was more than 1 µM in assay [1], more than 100 µM in assay [2], more than 100 µM in assay [3] and more than 100 µM in assay [4].
With `Nc1ccn([C@H]2C[C@H](O)[C@](CO)(CC(F)(F)F)O2)c(=O)n1` [Compound 62, 4-amino-1-[(2R,4S,5R)-4-hydroxy-5-(hydroxymethyl)-5-(2,2,2-trifluoroethyl)oxolan-2-yl] pyrimidin-2-one], the IC50 in assay [1] is more than 1 µM; in assay [2], 10 to 50 µM; in assay [3], 10 to 50 µM; in assay [4], 10 to 50 µM.
As to `CC[C@]1(CO)O[C@@H](n2cnc3c(N)nc(F)nc32)[C@@H](F)[C@@H]1O` [Compound 81, (2R,3R,4S,5R)-5-(6-amino-2-fluoropurin-9-yl)-2-ethyl-4-fluoro-2-(hydroxymethyl)oxolan-3-ol], the IC50 in assay [1] is more than 1 µM; in assay [2], more than 100 µM; in assay [3] it was more than 100 µM; in assay [4], more than 100 µM.
For `[N-]=[N+]=N[C@]1(CO)O[C@@H](n2cnc3c(=O)[nH]c(N)nc32)C[C@@H]1O` [Compound 108, 2-amino-9-((2R,4S,5R)-5-azido-4-hydroxy-5-(hydroxymethyl)tetrahydro-furan-2-yl)-1,9-dihydro-6H-purin-6-one], the IC50 in assay [1] lay within 0.25 to 1 µM; in assay [2] it was 1 to 10 µM; in assay [3], 10 to 50 µM; in assay [4] it was 1 to 10 µM.
Consider `Cc1cn([C@H]2C[C@H](O)[C@](CO)(CCl)O2)c(=O)nc1N` [Compound 11, 4-amino-1-((2R,4S,5R)-5-(chloromethyl)-4-hydroxy-5-(hydroxymethyl)tetrahydrofuran-2-yl)-5-methylpyrimidin-2(1H)-one], for which the IC50 is more than 1 µM in assay [1], more than 100 µM in assay [2], more than 100 µM in assay [3] and more than 100 µM in assay [4].
Regarding `[2H]C([2H])(Cl)[C@]1(CO)O[C@@H](n2cc(F)c(N)nc2=O)[C@@H](F)[C@@H]1O` [Compound 175, 4-amino-1-((2R,3S,4R,5R)-5-(chloromethyl-d2)-3-fluoro-4-hydroxy-5-(hydroxymethyl)tetrahydrofuran-2-yl)-5-fluoropyrimidin-2(1H)-one], the IC50 in assay [1] was 0.25 to 1 µM; in assay [2] it was more than 100 µM; in assay [3] it was more than 100 µM; in assay [4], more than 100 µM.
With `Nc1nc(=O)n([C@@H]2O[C@@](CO)(C3CC3)[C@@H](O)[C@@H]2F)cc1F` [Compound 122, 4-amino-1-[(2R,3S,4R,5R)-5-cyclopropyl-3-fluoro-4-hydroxy-5-(hydroxymethyl)oxolan-2-yl]-5-fluoropyrimidin-2-one], the IC50 in assay [1] was more than 1 µM; in assay [2], more than 100 µM; in assay [3], more than 100 µM; in assay [4], more than 100 µM.
As for `Nc1nc2c(ncn2[C@@H]2O[C@@](CO)(CCl)[C@@H](O)[C@@H]2F)c(=O)[nH]1` [Compound 70, 2-amino-9-((2R,3S,4R,5R)-5-(chloromethyl)-3-fluoro-4-hydroxy-5-(hydroxymethyl)-tetrahydrofuran-2-yl)-1,9-dihydro-6H-purin-6-one], the IC50 in assay [1] was more than 1 µM; in assay [2], 10 to 50 µM; in assay [3], 10 to 50 µM; in assay [4], 10 to 50 µM.
On to `CC[C@]1(COC(=O)C(C)C)O[C@@H](n2ccc(N)nc2=O)C[C@@H]1OC(=O)C(C)C` [Compound 52, [(2R,3S,5R)-5-(4-amino-2-oxopyrimidin-1-yl)-2-ethyl-3-[(2-methylpropanoyl)oxy]oxolan-2-yl] methyl 2-methylpropanoate], for which the IC50 in assay [1] was more than 1 µM; in assay [2], more than 100 µM; in assay [3], more than 100 µM; in assay [4], more than 100 µM.
For the compound `CCCC1(CO)O[C@@H](n2ccc(N)nc2=O)C[C@@H]1O` (stereo partly drawn) [Compound 57, 4-amino-1-((2R,4S,5R)-4-hydroxy-5-(hydroxymethyl)-5-propyltetrahydrofuran-2-yl)pyrimidin-2(1H)-one], the IC50 was more than 1 µM in assay [1], more than 100 µM in assay [2], more than 100 µM in assay [3] and more than 100 µM in assay [4].
As to `C#C[C@]1(CO)O[C@@H](n2cc(C)c(=O)[nH]c2=O)C[C@@H]1O` [Compound 38, 1-((2R,4S,5R)-5-ethynyl-4-hydroxy-5-(hydroxymethyl)tetrahydrofuran-2-yl)-5-methylpyrimidine-2,4(1H,3H)-dione], the IC50 in assay [1] was more than 1 µM; in assay [2] it was more than 100 µM; in assay [3], more than 100 µM; in assay [4], more than 100 µM.
On to `CC[C@]1(CO)O[C@@H](n2cc(F)c(N)nc2=O)C[C@@H]1O` [Compound 82, 4-amino-1-((2R,4S,5R)-5-ethyl-4-hydroxy-5-(hydroxymethyl)-tetrahydrofuran-2-yl)-5-fluoropyrimidin-2(1H)-one], for which the IC50 in assay [1] was more than 1 µM; in assay [2], more than 100 µM; in assay [3], more than 100 µM; in assay [4], more than 100 µM.
With `C=C[C@]1(CO)O[C@@H](n2cc(F)c(N)nc2=O)[C@@H](O)[C@@H]1O` [Compound 75, 4-amino-1-((2R,3S,4S,5R)-3,4-dihydroxy-5-(hydroxymethyl)-5-vinyltetrahydrofuran-2-yl)-5-fluoropyrimidin-2(1H)-one], the IC50 in assay [1] is more than 1 µM; in assay [2], more than 100 µM; in assay [3], more than 100 µM; in assay [4], more than 100 µM.
As to `[N-]=[N+]=N[C@]1(CO)O[C@@H](n2ccc(N)nc2=O)[C@@H](F)[C@@H]1O` [Compound 50, 4-amino-1-((2R,3S,4R,5R)-5-azido-3-fluoro-4-hydroxy-5-(hydroxymethyl)tetrahydrofuran-2-yl)pyrimidin-2(1H)-one], the IC50 is 0.25 to 1 µM in assay [1], less than 1 µM in assay [2], less than 1 µM in assay [3] and less than 1 µM in assay [4].
In the case of `Nc1nc(=O)n([C@H]2C[C@H](O)[C@](CO)(C(F)F)O2)cc1F` [Compound 65, 4-amino-1-[(2R,4S,5R)-5-(difluoromethyl)-4-hydroxy-5-(hydroxymethyl)oxolan-2-yl]-5-fluoropyrimidin-2-one], the IC50 was 0.25 to 1 µM in assay [1], more than 100 µM in assay [2], more than 100 µM in assay [3] and more than 100 µM in assay [4].
